# Reference: patent publication US10882854B2, “Heterocyclic compounds and use thereof” (National Health Research Institutes, priority 2017, dated 2021)
# What was measured:
# human CXCR4 = target: T1, human CXCR4 (Homo sapiens, UniProt P61073); experiment: Inhibition of 125I-CXCL12 radioligand binding, membranes of human CXCR4-transfected HEK293 cells; settings: 0.16 nM 125I-CXCL12, 60 min at 30 °C, read-out: concentration required to inhibit binding of 125I-CXCL12 to CXCR4 by 50% (IC50)
# T1 construct: expressed in transfected cells; host or cells: HEK293 cells (membranes)
# T1 sequence (P61073 whole entry): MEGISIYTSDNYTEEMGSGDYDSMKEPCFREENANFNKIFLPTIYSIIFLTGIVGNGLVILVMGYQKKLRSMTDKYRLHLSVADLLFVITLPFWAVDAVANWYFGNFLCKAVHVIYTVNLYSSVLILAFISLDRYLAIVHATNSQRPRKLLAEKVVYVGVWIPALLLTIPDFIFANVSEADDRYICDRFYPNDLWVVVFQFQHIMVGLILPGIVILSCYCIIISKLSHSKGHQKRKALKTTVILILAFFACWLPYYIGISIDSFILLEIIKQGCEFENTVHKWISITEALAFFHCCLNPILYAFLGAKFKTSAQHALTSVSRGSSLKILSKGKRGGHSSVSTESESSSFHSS
# Method: Binding competition between the compounds of Formula (I) and human CXCL12 was assessed using a radioligand binding assay as described below.
# Membranes (2-4 μg) prepared from human CXCR4-transfected HEK293 cells in 40 μL of assay buffer (50 mM HEPES-NaOH, pH 7.4, 100 mM NaCl, 5 mM MgCl2, 1 mM CaCl2, 0.5% bovine serum albumin) were incubated with 20 μL of radio-labeled ^125I-CXCL12 (0.16 nM) and 20 μL of a test compound in an assay plate (Costar Corning, Cambridge, Mass.). After 60 minutes at 30° C., the incubation was terminated by transferring the resulting reaction mixture to a 96-well GF/B filter plate (Millipore Corp., Billerica, Mass.) and filtered via a manifold. The plate was washed with 100 μL of ice-cold wash buffer (50 mM HEPES-NaOH, pH 7.4, 100 mM NaCl) four times. The radioactivity bound to the filter was measured by Topcount (PerkinElmer Inc., Waltham, Mass.).
# [1] = system: T-cell acute lymphoblastic leukemia (CCRF-CEM) cells; experiment: Inhibition of CXCL12-induced chemotaxis in lymphoblastic leukemia cells; assay type: cell-based; settings: Homo sapiens, CXCL12 10 nM, 2.5 h at 37 °C, read-out: concentration required to inhibit chemotaxis by 50% (EC50)
# Method: The response of cancer cells to compounds of Formula (I) was evaluated using the chemotaxis assay as set forth below.
# T-cell acute lymphoblastic leukemia (CCRF-CEM) cells in Roswell Park Memorial Institute medium (RPMI) 1640 supplemented with 10% […] were incubated with 250 μL of a test compound. The assay was performed using Millicell Hanging Cell Culture Inserts (pore size 5 μm; 24-well plate; Millipore, Bedford, Mass., USA). After 10 minutes at 37° C., 250 μL of cells pre-incubated with a test compound were plated per well in the upper chambers of the inserts at a density of 2.5×10^5 cells/well. 300 μL/well medium containing CXCL12 (10 nM) and a test compound were plated in the lower chamber of the insert. After 2.5 h at 37° C., cells in both chambers of inserts were measured by flow cytometry (Guava Technologies, Hayward, Calif., USA).
Compound,IC50 (human CXCR4),EC50 [1]
CCc1cc(NC2CCN(C(=O)CC[C@H](N)C(=O)O)CC2)nc(NCc2nnn(CCCNCCCNC3CCCCC3)n2)n1 [Compound 65],100 to 1000 nM,
Cc1cc(NC2CCNCC2)nc(NCc2nnc(CCCNCCCNC3CCCCC3)o2)n1 [Compound 20],50 to 100 nM,< 50 nM
CCc1cc(NC2CCN(C(=O)CC[C@H](N)C(=O)O)CC2)nc(NCc2nnc(CCCNCCCNC3CCCCC3)s2)n1 [Compound 69],100 to 1000 nM,
N[C@@H](CCC(=O)N1CCC(Nc2nc(NCc3ncn(CCCNCCCNC4CCCCC4)n3)nc3ccccc23)CC1)C(=O)O [Compound 77],100 to 1000 nM,
c1ccc2c(NC3CCNCC3)nc(NCc3nnc(CCCNCCCNC4CCCCC4)s3)nc2c1 [Compound 7],< 50 nM,< 50 nM
CCc1cc(NC2CCN(C(=O)CCNCC(=O)O)CC2)nc(NCc2nnn(CCCNCCCNC3CCCCC3)n2)n1 [Compound 63],100 to 1000 nM,
CCc1cc(NC2CCNCC2)nc(NCc2nnc(CCCNCCCNC3CCCCC3)s2)n1 [Compound 25],< 50 nM,
CCc1cc(NC2CCN(C(=O)CCNCC(=O)O)CC2)nc(NCc2nnc(CCCNCCCNC3CCCCC3)s2)n1 [Compound 70],100 to 1000 nM,
N[C@@H](CCC(=O)N1CCC(Nc2nc(NCc3cc(CCCNCCCNC4CCCCC4)n[nH]3)nc3ccccc23)CC1)C(=O)O [Compound 76],50 to 100 nM,
c1cnc2nc(NCc3nnn(CCCNCCCNC4CCCCC4)n3)nc(NC3CCNCC3)c2c1 [Compound 53],100 to 1000 nM,
c1ccc2c(NC3CCNCC3)nc(NCCc3cn(CCCCNCCCNC4CCCCC4)cn3)nc2c1 [Compound 8],50 to 100 nM,< 50 nM
CCc1cc(NC2CCN(C(=O)CCCNCC(=O)O)CC2)nc(NCc2nnn(CCCNCCCNC3CCCCC3)n2)n1 [Compound 64],100 to 1000 nM,
O=C(O)CNCCCC(=O)N1CCC(Nc2nc(NCc3nnn(CCCNCCCNC4CCCCC4)n3)nc3ccccc23)CC1 [Compound 59],< 50 nM,< 50 nM
Cc1cc(NC2CCNCC2)nc(NCc2nc(CCCNCCCNC3CCCCC3)cs2)n1 [Compound 17],< 50 nM,< 50 nM
N[C@@H](CCC(=O)N1CCC(Nc2nc(NCc3nnnn3CCCNCCCNC3CCCCC3)nc3ccccc23)CC1)C(=O)O [Compound 67],100 to 1000 nM,
c1ccc2c(NC3CCNCC3)nc(NCc3ncn(CCCNCCCNC4CCCCC4)n3)nc2c1 [Compound 11],50 to 100 nM,
N[C@@H](CCC(=O)N1CCC(Nc2nc(NCc3nc(CNCCCNC4CCCCC4)c[nH]3)nc3ccccc23)CC1)C(=O)O [Compound 79],100 to 1000 nM,
Cc1cc(NC2CCNCC2)nc(NCc2noc(CCCNCCCNC3CCCCC3)n2)n1 [Compound 19],< 50 nM,
Cc1cc(NC2CCNCC2)nc(NCc2nc(CCCNCCCNC3CCCCC3)co2)n1 [Compound 18],< 50 nM,< 50 nM
CCc1cc(NC2CCN(C(=O)CC[C@H](N)C(=O)O)CC2)nc(NCc2nnc(CCCNCCCNC3CCCCC3)[nH]2)n1 [Compound 66],50 to 100 nM,

Compound,IC50 (human CXCR4),EC50 [1]
O=C(O)[C@@H](O)CCC(=O)N1CCC(Nc2nc(NCc3nc(CCCNCCCNC4CCCCC4)co3)nc3ccccc23)CC1 [Compound 54],100 to 1000 nM,
O=C(O)CNCCC(=O)N1CCC(Nc2nc(NCc3nnnn3CCCNCCCNC3CCCCC3)nc3ccccc23)CC1 [Compound 68],100 to 1000 nM,
Cc1cc(NC2CCN(C(=O)CCNCC(=O)O)CC2)nc(NCc2nc(CNCCCNC3CCCCC3)c[nH]2)n1 [Compound 83],100 to 1000 nM,
N[C@@H](CCC(=O)N1CCC(Nc2nc(NCc3cc(CCCNCCCNC4CCCCC4)on3)nc3ccccc23)CC1)C(=O)O [Compound 29],< 50 nM,< 50 nM
Cc1cc(NC2CCNCC2)nc(NCc2nc(CNCCCNC3CCCCC3)c[nH]2)n1 [Compound 73],50 to 100 nM,
Cc1cc(NC2CCN(C(=O)CCNCC(=O)O)CC2)nc(NCc2nc(CCCNCCCNC3CCCCC3)cs2)n1 [Compound 41],100 to 1000 nM,< 50 nM
c1ccc2c(NC3CCNCC3)nc(NCc3coc(CCCNCCCNC4CCCCC4)n3)nc2c1 [Compound 2],< 50 nM,< 50 nM
Cc1cc(NC2CCNCC2)nc(NCCc2cn(CCCCNCCCNC3CCCCC3)cn2)n1 [Compound 22],50 to 100 nM,< 50 nM
N[C@@H](CCC(=O)N1CCC(Nc2nc(NCc3coc(CCCNCCCNC4CCCCC4)n3)nc3ccccc23)CC1)C(=O)O [Compound 30],< 50 nM,< 50 nM
Cc1cc(NC2CCNCC2)nc(NCc2nnc(CCCNCCCNC3CCCCC3)[nH]2)n1 [Compound 24],50 to 100 nM,< 50 nM
C1=NC(CNc2nc(NC3CCNCC3)c3ccccc3n2)=NC1CNCCCNC1CCCCC1 (stereo not shown) [Compound 72],50 to 100 nM,
c1cc2c(NC3CCNCC3)nc(NCc3nnn(CCCNCCCNC4CCCCC4)n3)nc2s1 [Compound 56],100 to 1000 nM,
N[C@@H](CCC(=O)N1CCC(Nc2nc(NCc3noc(CCCNCCCNC4CCCCC4)n3)nc3ccccc23)CC1)C(=O)O [Compound 33],50 to 100 nM,50 to 150 nM
Cc1cc(NC2CCN(C(=O)CCNCC(=O)O)CC2)nc(NCc2ncn(CCCNCCCNC3CCCCC3)n2)n1 [Compound 81],100 to 1000 nM,
Cc1cc(NC2CCN(C(=O)CCNCC(=O)O)CC2)nc(NCc2cc(CCCNCCCNC3CCCCC3)on2)n1 [Compound 39],50 to 100 nM,< 50 nM
c1ccc2c(NC3CCNCC3)nc(NCc3nnnn3CCCNCCCNC3CCCCC3)nc2c1 [Compound 14],50 to 100 nM,< 50 nM
Cc1cc(NC2CCN(C(=O)CCNCC(=O)O)CC2)nc(NCc2noc(CCCNCCCNC3CCCCC3)n2)n1 [Compound 43],50 to 100 nM,
CCc1cc(NC2CCNCC2)nc(NCc2nnc(CCCNCCCNC3CCCCC3)[nH]2)n1 [Compound 27],50 to 100 nM,
c1nc2c(NCc3nnn(CCCNCCCNC4CCCCC4)n3)nc(N3CCNCC3)nc2[nH]1 [Compound 55],100 to 1000 nM,
c1ccc2c(NC3CCNCC3)nc(NCc3cc(CCCNCCCNC4CCCCC4)[nH]n3)nc2c1 [Compound 9],< 50 nM,

Compound,IC50 (human CXCR4),EC50 [1]
N[C@@H](CCC(=O)NCCN1CCC(Nc2nc(NCc3nnnn3CCCNCCCNC3CCCCC3)nc3ccccc23)CC1)C(=O)NCCP(=O)(O)O [Compound 52],100 to 1000 nM,
FC(F)(F)c1cnc(NCc2nnn(CCCNCCCNC3CCCCC3)n2)nc1NC1CCNCC1 [Compound 74],100 to 1000 nM,
N[C@@H](CCC(=O)N1CCC(Nc2nc(NCCc3cn(CCCCNCCCNC4CCCCC4)cn3)nc3ccccc23)CC1)C(=O)O [Compound 36],100 to 1000 nM,
Cc1cc(NC2CCNCC2)nc(NCc2ncn(CCCNCCCNC3CCCCC3)n2)n1 [Compound 71],100 to 1000 nM,
N[C@@H](CCC(=O)NCCN1CCC(Nc2nc(NCc3nc(CNCCCNC4CCCCC4)cs3)nc3ccccc23)CC1)C(=O)NCCP(=O)(O)O [Compound 84],100 to 1000 nM,
O=C(O)[C@H]1CCCN1CCC(=O)N1CCC(Nc2nc(NCc3nnn(CCCNCCCNC4CCCCC4)n3)nc3ccccc23)CC1 [Compound 78],50 to 100 nM,
Nc1cc(N2CCNCC2)nc(NCc2nnn(CCCNCCCNC3CCCCC3)n2)n1 [Compound 57],100 to 1000 nM,
CCOC(=O)CNCCC(=O)N1CCC(Nc2cc(C)nc(NCc3cc(CCCNCCCNC4CCCCC4)n[nH]3)n2)CC1 [Compound 82],50 to 100 nM,
Cc1cnc(NCc2nnn(CCCNCCCNC3CCCCC3)n2)nc1NC1CCNCC1 [Compound 75],< 50 nM,
CC(C)CC(NCCC(=O)N1CCC(Nc2nc(NCc3nnn(CCCNCCCNC4CCCCC4)n3)nc3ccccc23)CC1)C(=O)O (stereo not shown) [Compound 80],100 to 1000 nM,
Cc1cc(NC2CCN(C(=O)CCNCC(=O)O)CC2)nc(NCc2nnc(CCCNCCCNC3CCCCC3)o2)n1 [Compound 44],100 to 1000 nM,
N[C@@H](CCC(=O)NCCN1CCC(Nc2nc(NCc3nnc(CCCNCCCNC4CCCCC4)o3)nc3ccccc23)CC1)C(=O)NCCP(=O)(O)O [Compound 51],100 to 1000 nM,
c1cc(NC2CCNCC2)nc(NCc2nnn(CCCNCCCNC3CCCCC3)n2)n1 [Compound 58],50 to 100 nM,
c1ccc2c(N3CCNCC3)nc(NCc3nnn(CCCNCCCNC4CCCCC4)n3)nc2c1 [Compound 12],< 50 nM,
Cc1cnc(NCc2nnn(CCCNCCCNC3CCCCC3)n2)nc1NC1CCN(C(=O)CCNCC(=O)O)CC1 [Compound 85],100 to 1000 nM,
Cc1cnc(NCc2nnn(CCCNCCCNC3CCCCC3)n2)nc1NC1CCN(C(=O)CC[C@H](N)C(=O)O)CC1 [Compound 86],100 to 1000 nM,
N[C@@H](CCC(=O)N1CCC(Nc2nc(NCCc3cn(CCCCNCCCNC4CCCCC4)cn3)nc3ccccc23)CC1)C(=O)OCc1ccccc1 [Compound 60],100 to 1000 nM,
Cc1cc(NC2CCNCC2)nc(NCc2cc(CCCNCCCNC3CCCCC3)[nH]n2)n1 [Compound 28],< 50 nM,
